Data published in the supplement of paper PMC3493320.

Tested on: NCI-H295R
Experiment: IC50 (antiproliferative, ATP content)
Details: 48 h
Procedure, shortened: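 Adrenocortical carcinoma cells were plated at 1500 per well in 1536-well plates in serum-free DMEM with ITS supplement, left overnight, then given library compounds by pin transfer at 8 final concentrations spanning 0.6 nM to 46 µM and held 48 h at 37 °C, 5% CO2. ATP was measured as CellTiter-Glo luminescence after 20 min at room temperature and scaled between vehicle and positive-control wells. A four-parameter logistic model was fitted to each series. The IC50 was taken from these fits, and compounds without a concentration response were recorded as above the top dose.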

IC50 [µM] | Compound
> 46 | O=C1[C@H]3[C@H](C3)[C@@]([C@]4([H])[C@@]([C@@]5([H])[C@]([C@@](CC5)(OC(C)=O)[C@@](C)=O)(C)CC4)([H])C=C2Cl)(C)C2=C1
> 46 | CCCCO
> 46 | CC(C)(Sc1cc(C(C)(C)C)c(O)c(C(C)(C)C)c1)Sc1cc(C(C)(C)C)c(O)c(C(C)(C)C)c1
> 46 | CC(=O)N[C@H]1C(O)O[C@H](CO)[C@@H](O)[C@@H]1O (some centres not stated)
> 46 | O=C(O)c1ccc(NC2OC[C@@H](O)[C@H](O)[C@H]2O)cc1 (some centres not stated)
> 46 | Nc1nc(N)c(-c2ccccc2)s1
> 46 | CC1CCc2c(N3CCC(O)CC3)c(F)cc3c(=O)c(C(=O)O)cn1c23 (configuration not stated)
> 46 | COC(=O)c1ccc(O)cc1
> 46 | CCCC(=O)Nc1c(I)cc(I)c(CC(CC)C(=O)[O-])c1I.[Na+] (configuration not stated)
> 46 | CCOC(=O)COc1ccc2c(C)c(CCN(CC)CC)c(=O)oc2c1Cl.Cl
> 46 | CC(C)(CO)C(O)C(=O)NCCC(=O)NCCSSCCNC(=O)CCNC(=O)C(O)C(C)(C)CO (configuration not stated)
> 46 | O=C(Cn1ccnc1[N+](=O)[O-])NCc1ccccc1
> 46 | CCN(CC)CC#CCOC(=O)C(O)(c1ccccc1)C1CCCCC1.Cl (configuration not stated)
> 46 | CC(C)(C)C(=O)C(Oc1ccc(Cl)cc1)n1ccnc1 (configuration not stated)
> 46 | CCC(=O)Nc1ccc(O)cc1
> 46 | CCCC(=O)O[C@]1(C(=O)CCl)[C@@H](C)C[C@H]2[C@@H]3CCC4=CC(=O)C=C[C@]4(C)[C@@]3(F)C(=O)C[C@@]21C
> 46 | O.O=C(/C=C/C(O)c1ccc(Cl)cc1)[O][Na] (configuration not stated)
> 46 | O=C(O)CCCCCCCC(=O)O
> 46 | Nc1nc2ccc(OC(F)(F)F)cc2s1
> 46 | CC(C)(Oc1ccc(C2CC2(Cl)Cl)cc1)C(=O)O (configuration not stated)
> 46 | C[C@]12C=CC(=O)C=C1[C@@H](F)C[C@@H]1[C@@H]2[C@@H](O)C[C@@]2(C)[C@H]1CC[C@]2(O)C(=O)CO
> 46 | CC(=O)N[C@@H](CC(=O)N[C@@H](CCC(=O)O)C(=O)O)C(=O)O
> 46 | CCOC(=O)C(C)(C)Oc1ccc(Cl)cc1
> 46 | Nc1nnc(-c2cccc(Cl)c2Cl)c(N)n1
> 46 | F\C1=C\N(C(=O)NC1=O)[C@@H]2O[C@H](C)[C@@H](O)[C@H]2O
> 46 | CS(=O)(=O)Nc1cc2\C=C(/Nc2cc1)C(=O)N3CCN(CC3)c4ncccc4NC(C)C
> 46 | COC(=O)c1ccccc1O

IC50 [µM] | Compound
> 46 | Nc1nc(Cl)nc2c1ncn2[C@H]1C[C@H](O)[C@@H](CO)O1
> 46 | COc1ccc(CCN(C)CCCC(C#N)(c2ccc(OC)c(OC)c2)C(C)C)cc1OC (configuration not stated)
> 46 | Cc1cc(C(=O)NCCc2ccc(S(=O)(=O)NC(=O)NN3CCCCCC3)cc2)no1
> 46 | CC(=O)Oc1ccc(C2(c3ccc(OC(C)=O)cc3)C(=O)Nc3ccccc32)cc1
> 46 | Cc1cc(=O)oc2cc(O)ccc12
> 46 | [C@@]2\1(\C(=C/C(/C=C/1)=O)[C@H](C[C@@H]4[C@@H]2[C@H](C[C@@]3([C@](C(COC(=O)C)=O)(O)CC[C@H]34)C)O)C)C
> 46 | Cl.O=C(NC1CCN(CCc2c[nH]c3ccccc23)CC1)c1ccccc1
> 46 | CCOC(=S)SSC(=S)OCC
> 46 | O=C(CSC#N)O[C@H]2[C@]1(C)CC[C@H](C2)[C@](C)1C
> 46 | CCCOc1cc(N)ccc1C(=O)OCCN(CC)CC.Cl
> 46 | CC(C)Oc1ccc2c(=O)c(-c3ccccc3)coc2c1
> 46 | OC(=O)[C@@H](N)C\C2=C\Nc1ccc(O)cc12
> 46 | CC(C)[N+](C)(CCOC(=O)C1c2ccccc2Oc2ccccc21)C(C)C.[Br-]
> 46 | C[N+]1(CC2COC(c3ccccc3)(C3CCCCC3)O2)CCCCC1.[I-] (configuration not stated)
> 46 | N/1C(N(\C=C\1)C)=S
> 46 | CC(C)[N+](C)(C)CC(O)COc1cccc2ccccc12.[Cl-] (configuration not stated)
> 46 | CC(C)CCCC(C)NC(C)C (configuration not stated)
> 46 | CCCCCCCC/C=C\CCCCCCCC(=O)O
> 46 | O=S1(=O)OC(c2ccc(O)cc2)(c2ccc(O)cc2)c2ccccc21
> 46 | CC1(C)CO[C@@H](CC(=O)O)CN1
> 46 | N[C@@H]1CONC1=O
> 46 | Cc1ccc2nc(N)[nH]c(=O)c2c1Sc1ccncc1.Cl.Cl
> 46 | Cl.O=C(O)c1cn(C2CC2)c2cc(N3CCNCC3)c(F)cc2c1=O
> 46 | C=CCN1CCc2nc(N)sc2CC1
> 46 | CCC(=O)OCC(=O)[C@@]1(OC(=O)CC)[C@H](C)C[C@H]2[C@H]3[C@H]([C@@H](O)C[C@@]21C)[C@@]1(C)C=CC(=O)C=C1C[C@H]3Cl
> 46 | CC(=O)Nc1c(I)cc(I)c(C(=O)O)c1I
> 46 | CCCCC[C@H](O)/C=C/[C@@H]1[C@H]2C/C(=C/CCCC(=O)[O-])O[C@H]2C[C@H]1O.[Na+]

IC50 [µM] | Compound
> 46 | N[C@H](C(=O)O)[C@@H](O)c1ccc(O)c(O)c1
> 46 | CC(=O)OCC(=O)[C@H]2CC[C@H]3[C@@H]4CC\C1=C\C(=O)CC[C@]1(C)[C@H]4CC[C@]23C
> 46 | O=C(Nc1ccc(C(=O)O)c(O)c1)c1ccccc1
> 46 | O=C1CCC(c2ccc(-n3ccnc3)cc2)=NN1
> 46 | CCOC(=O)C1=C(C)NC(C)=C(C(=O)OC)C1c1cccc([N+](=O)[O-])c1 (configuration not stated)
> 46 | C=CC(N)CCC(=O)O (configuration not stated)
> 46 | CC(=O)OCC(=O)[C@@]1(O)CC[C@H]2[C@@H]3CCC4=CC(=O)CC[C@]4(C)C3=CC[C@@]21C
> 46 | O=C2N1[C@]([C@@]([H])2NC(CC3=CC=CC=C3)=O)([H])SC(C)(C)[C@@H]1[C@@](O)=O.O=C5N4[C@]([C@@]([H])5NC(CC6=CC=CC=C6)=O)([H])SC(C)(C)[C@@H]4[C@@](O)=O.C7(CNCCNCC8=CC=CC=C8)=CC=CC=C7
> 46 | O=C1NC(=O)[C@H]2[C@@H]1[C@@H]1C=C[C@H]2C1
> 46 | CCCNC(=O)NS(=O)(=O)c1ccc(Cl)cc1
> 46 | O=C(O)CCC(=O)O
> 46 | [Na+].[Na+].[O-]C(=O)c4ccccc4C=2c3cc(Br)c([O-])c(Br)c3OC=1C=2\C=C(\Br)C(=O)C=1Br
> 46 | CCC(C)(Oc1ccc(C2(c3ccc(OC(C)(CC)C(=O)O)cc3)CCCCC2)cc1)C(=O)O (configuration not stated)
> 46 | CCCCCOC(=O)Nc1nc(=O)n([C@@H]2O[C@H](C)[C@@H](O)[C@H]2O)cc1F
> 46 | C[C@@H](O)[C@H](N)C(=O)O
> 46 | CC[C@H]1OC(=O)[C@H](C)C(=O)[C@H](C)[C@@H](O[C@@H]2O[C@H](C)C[C@H](N(C)C)[C@H]2O)[C@](C)(OC)C[C@@H](C)C(=O)[C@H](C)[C@H]2N(CCCCn3cnc(-c4cccnc4)c3)C(=O)O[C@]12C
> 46 | Nc1ncnc(Nc2ccccc2)n1
> 46 | COc1ccc(S(=O)(=O)Nc2nnc(CC(C)C)s2)cc1
> 46 | NC(=O)c1ncn([C@@H]2O[C@H](CO)[C@@H](O)[C@H]2O)c1O
> 46 | CC(C)(C)C(=O)NCCCC(=O)O
> 46 | CCCc1cc(=O)[nH]c(=S)[nH]1
> 46 | CCCCNc1ccc(C(=O)OCCOCCOCCOCCOCCOCCOCCOCCOCCOC)cc1
> 46 | Oc1ccc(/C=C/c2cc(O)cc(O)c2)cc1
> 46 | Cc1cc(O)cc2c1O[C@](C)(CCC[C@H](C)CCC[C@H](C)CCCC(C)C)CC2
> 46 | CCCCCCCCCCCCCCCCCCCCCCO

Compound | IC50 [µM]
O=C(N/N=C/c1ccc([N+](=O)[O-])o1)c1cc([N+](=O)[O-])cc([N+](=O)[O-])c1O | > 46
CCOCCn1c(N2CCCN(C)CC2)nc2ccccc21.O=C(O)/C=C/C(=O)O.O=C(O)/C=C/C(=O)O | > 46
COP(=S)(OC)Oc1ccc(SC)c(C)c1 | > 46
CCCCCCCCC(=O)NCc1ccc(O)c(OC)c1 | > 46
CC12CCC(C[N+](C)(CCC[N+](C)(C)C)C1)C2(C)C.COS(=O)(=O)[O-].COS(=O)(=O)[O-] (configuration not stated) | > 46
C#CCN(C)[C@H](C)Cc1ccccc1.Cl | > 46
CCCC(C)(COC(N)=O)COC(=O)NC1CC1 (configuration not stated) | > 46
N=C(N)NCc1cccc(I)c1.N=C(N)NCc1cccc(I)c1.O=S(=O)(O)O | > 46
Cc1cccc(C(C)c2c[nH]cn2)c1C (configuration not stated) | > 46
Oc1ccc2[nH]cc(CCCCN3CC=C(c4ccccc4)CC3)c2c1 | > 46
Cc1ccc(-c2nc3ccc(C)cn3c2CC(=O)N(C)C)cc1 | > 46
C#CCOC(C(=O)OCCN(C)C)(c1ccccc1)c1ccccc1.Cl | > 46
O[C@H]1[C@@H]([C@H](O)CO)O[C@H]2[C@@H]1O[C@H]([C@@](Cl)(Cl)Cl)O2 | > 46
CCN(CC)C(=O)C(Cl)=C(C)OP(=O)(OC)OC | > 46
N#CCCN.N#CCCN.O=C(O)/C=C/C(=O)O | > 46
CCCCCCCCCC(=O)O[C@H]2CC[C@H]3[C@@H]4CC\C1=C\C(=O)CC[C@@H]1[C@H]4CC[C@]23C | > 46
O=C1CCCCC1CN1CCCCC1 (configuration not stated) | > 46
O=C(C3=CC=CC=C3)O[C@@H]1C[C@H](CC2)N(C)[C@H]2[C@H]1[C@@](OC)=O.Cl | > 46
Clc1ccccc1Cl | > 46
CS(=O)(=O)O.Cc1ccc2c(c1)c1c3n2CCNC3CCC1 (configuration not stated) | > 46
C[C@]12N[C@H](Cc3ccccc31)c1ccccc12.O=C(O)/C=C\C(=O)O | > 46
CC1(C)C(C=C(Cl)Cl)C1C(=O)OCc1cccc(Oc2ccccc2)c1 (configuration not stated) | > 46
O[C@@H]([C@H](C)NC)[C@@]1=CC=CC=C1.Cl | > 46
